Columns and labels:
[1] = tested on: dog plasma supplemented with lipoprotein lipase (LPL); assay: In vitro hydrolysis of prodrugs in dog plasma supplemented with lipoprotein lipase; assay type: in vitro ADME; settings: 37° C.; for hydrolysis of prodrug to its monoglyceride form: 0-180 min
Procedure: (§1) In order to probe the release of free drug from TG prodrugs in the systemic circulation, prodrugs are incubated with plasma (rat, mouse, dog, pig or human) supplemented with lipoprotein lipase (LPL, 200 IU/ml). LPL is a key enzyme required for the hydrolysis of lipoprotein associated TG in the systemic circulation and is therefore expected to be a key contributor to lipolysis of the re-esterified drug-TG construct in plasma, largely via liberation of fatty acids in the sn-1 and the sn-3 position of the TG-mimetic, prior to drug release from the 2′ position via esterase hydrolysis. […] is tethered to the luminal surface of vascular endothelial cells under physiological conditions. In the current in vitro studies, plasma is therefore supplemented with LPL to better reflect the in vivo situation.
(§2) To start hydrolysis, 10 μl of LPL solution (10,000 IU/ml) was added to a mixture of 10 μl of prodrug solution (1 mg/ml dissolved in acetonitrile) and 500 μl of blank plasma. The mixture was incubated at 37° C. Samples (20 μl) of the incubation solution were taken at 0, 5, 15, 30, 60, 90, 120 and 180 minutes post-incubation and added to 180 μl of MeCN to stop lipolysis. The mixture was vortexed and centrifuged at 4500×g for 5 minutes to precipitate proteins prior to analysis. The supernatant was analyzed by HPLC-MS/MS for the potential products (MG form, acid form, and free drug) of prodrug hydrolysis.
(§3) The in vitro hydrolysis profile of selected prodrug compounds was determined in rat, dog, and/or human plasma supplemented with LPL. The data for prodrug compound I-1 in rat and dog plasma are shown in FIG. 10 and FIG. 11, respectively. The data for prodrug compound I-2 in rat, dog, and human plasma are shown in FIG. 12, FIG. 13, and FIG. 14, respectively. […] The monoglycerides were then converted at different rates to an acid intermediate and/or free parent ALLO. An acid intermediate was not observed for prodrug I-2. The acid intermediate of prodrug I-1 is believed to have the following structure, based on HPLC-MS data: […]

[2] = tested on: porcine pancreatic lipase; assay: In vitro hydrolysis of prodrugs by incubation with porcine pancreatic lipase; assay type: in vitro ADME; settings: 37° C.; for hydrolysis of prodrug to its monoglyceride form: simulated intestinal micellar solution, 0-180 min
Procedure: To provide for higher throughput of experiments, unless otherwise stated, in vitro hydrolysis of compounds will generally be performed via incubation with porcine pancreatic lipase. This provides a more reproducible source of pancreatic enzymes, facilitates enhanced experimental throughput, and is also a greater challenge than collected rat enzymes (since enzyme activity in rat intestinal fluid is low). Briefly, pancreatic lipase solution was prepared prior to the hydrolysis experiment by dispersion of 1 g porcine pancreatin in 5 ml of lipolysis buffer and 16.9 μL of 0.5 M NaOH. The suspension was mixed well and centrifuged at 3500 rpm for 15 minutes at 5° C. to provide a supernatant. An amount of 1000 mL of lipolysis buffer was prepared with 0.474 g of tris-maleate (2 mM), 0.206 g of CaCl2.H2O (1.4 mM) and 8.775 g of NaCl (150 mM) adjusted with NaOH to pH 6.5. To assess the potential for prodrug hydrolysis in the intestine, 20 μL of prodrug solution (1 mg/mL dissolved in acetonitrile), 900 μL of simulated intestinal micellar solution [prepared with 0.783 g of NaTDC (3 mM) and 0.291 g of phosphatidylcholine (0.75 mM) in 500 mL lipolysis buffer] and 100 μL of enzyme solution were incubated at 37° C. 20 μL samples of the incubation solution were taken at 0, 5, 10, 15, 30, 60, 90, 120 and 180 minutes post incubation and added to 180 μL of MeCN to stop lipolysis. The mixture was vortexed and centrifuged at 5000 rpm for 5 minutes to precipitate proteins prior to analysis. The supernatant was analyzed by HPLC-MS for residual compound concentrations, and the potential products of compound hydrolysis analyzed.
The data for prodrug compounds I-1 and I-2 are shown in FIG. 8 and FIG. 9, respectively. […] The monoglycerides were then converted at different rates to an acid intermediate and/or free parent ALLO. An acid intermediate was not observed for prodrug I-2. The acid intermediate of prodrug I-1 is believed to have the following structure, based on HPLC-MS data: […]

[3] = tested on: rat plasma supplemented with lipoprotein lipase (LPL); assay: In vitro hydrolysis of prodrugs in rat plasma supplemented with lipoprotein lipase; assay type: in vitro ADME; settings: 37° C.; for hydrolysis of prodrug to its monoglyceride form: 0-180 min
Procedure: as §1, §2, §3

[4] = Rat pharmacokinetic studies: plasma allopregnanolone after oral prodrug or ALLO, and after IV ALLO; assay type: in vivo, male Sprague-Dawley rats; settings: plasma Allo after oral gavage to rats; doses normalized to 2 mg/kg equivalent ALLO; mean±SD (n≥3) or mean±range (n=2)
Procedure: In order to assess the oral bioavailability of test compounds, pharmacokinetic studies were conducted using the following procedure. The day before drug administration, male Sprague-Dawley rats (240-320 g) were anesthetized and the carotid artery was cannulated. The rats were then allowed to regain consciousness and fasted overnight prior to the commencement of experiments with free access to water. The next morning, formulations containing parent compounds or prodrugs were administered via oral gavage or via the jugular vein cannula, and blood samples were collected from the carotid artery cannula from −5 min up to 24 h post dosing. During the blood sample collection period the rats had free access to water but remained fasted for a further 8 h following drug administration. In these allopregnanolone (ALLO) related studies, the blood samples were centrifuged at 4500×g for 5 min to separate plasma. Plasma samples were stored at −20° C. prior to assay by HPLC-MS-MS. The whole blood or plasma samples were assayed for free drug (i.e. non-glyceride associated drug) and were not hydrolized prior to assay (as was the case with the lymph samples).
FIG. 3 illustrates dose-normalized ALLO plasma concentrations following oral gavage of ALLO related formulations to conscious, carotid artery-cannulated male SD rats. The ALLO oral formulation for each rat contained 2 mg of parent ALLO (i.e., non-prodrug allopregnanolone) suspended in 2 ml of suspending vehicle (0.50 sodium carboxymethyl cellulose, 0.4% Tween 80 and 0.9% NaCl in water). Prodrug formulations for each rat contained 2 mg of the ALLO prodrug dispersed in 40 mg oleic acid, 25 mg Tween 80 and 2 ml PBS. Doses were normalized to a 2 mg/kg equivalent dose of ALLO. Data are shown as mean±SD n≥3 or mean±range when n=2. […] Doses are normalized to a 2 mg/kg equivalent ALLO dose and data are presented as mean±SD when n≥3 or mean±range when n=2.
Also shown (bottom) is the calculated area under the curve (AUC) over 0-24 h for each of the test compounds as a fraction of the IV-administered allpregnanolone control.

[5] = background statement; cited from earlier work
[6] = tested on: human plasma supplemented with lipoprotein lipase (LPL); assay: In vitro hydrolysis of prodrugs in human plasma supplemented with lipoprotein lipase; assay type: in vitro ADME; settings: 37° C.
Procedure: as §1
To start hydrolysis, 10 μl of LPL solution (10,000 IU/ml) was added to a mixture of 10 μl of prodrug solution (1 mg/ml dissolved in acetonitrile) and 500 μl of blank plasma. The mixture was incubated at 37° C. […] The supernatant was analyzed by HPLC-MS/MS for the potential products (MG form, acid form, and free drug) of prodrug hydrolysis.
The in vitro hydrolysis profile of selected prodrug compounds was determined in rat, dog, and/or human plasma supplemented with LPL. […]

SMILES | hydrolysis of prodrug to its monoglyceride form [1] | hydrolysis of prodrug to its monoglyceride form [2] | hydrolysis of prodrug to its monoglyceride form [3] | Cmax [4] | further results
CCCCCCCCCCCCCCCC(=O)OCC(COC(=O)CCCCCCCCCCCCCCC)OC(=O)CCCCCCCCC(=O)O[C@@H]1CC[C@@]2(C)[C@@H](CC[C@@H]3[C@@H]2CC[C@]2(C)[C@@H](C(C)=O)CC[C@@H]32)C1 [Compound I-1, 1-((3R,5S,8R,9S,10S,13S,14S,17S)-17-acetyl-10,13-dimethylhexadecahydro-1H-cyclopenta[a]phenanthren-3-yl) 10-(1,3-bis(palmitoyloxy)propan-2-yl) decanedioate] | rapidly converted to the prodrug's monoglyceride form | rapidly converted to the prodrug's monoglyceride form | rapidly converted to the prodrug's monoglyceride form | – | –
CCCCCCCCCCCCCCCC(=O)OCC(COC(=O)CCCCCCCCCCCCCCC)OC(=O)C(C)(C)CCCCCCCC(=O)O[C@@H]1CC[C@@]2(C)[C@@H](CC[C@@H]3[C@@H]2CC[C@]2(C)[C@@H](C(C)=O)CC[C@@H]32)C1 [Compound I-12, 10-((3R,5S,8R,9S,10S,13S,14S,17S)-17-acetyl-10,13-dimethylhexadecahydro-1H-cyclopenta[a]phenanthren-3-yl) 1-(1,3-bis(palmitoyloxy)propan-2-yl) 2,2-dimethyldecanedioate] | – | – | – | below LOQ) | –
CCCCCCCCCCC(=O)O[C@H]1CC[C@H]2[C@@H]3CCC4=CC(=O)CC[C@]4(C)[C@H]3CC[C@]12C [testosterone undecanoate] | – | – | – | – | bioavailability of testosterone after oral administration of the undecanoate ester [5]: < 5%
CCCCCCCCCCCCCCCC(=O)OCC(COC(=O)CCCCCCCCCCCCCCC)OC(=O)C(C)(C)CCCCCCCCCC(=O)O[C@@H]1CC[C@@]2(C)[C@@H](CC[C@@H]3[C@@H]2CC[C@]2(C)[C@@H](C(C)=O)CC[C@@H]32)C1 [Compound I-13, 12-((3R,5S,8R,9S,10S,13S,14S,17S)-17-acetyl-10,13-dimethylhexadecahydro-1H-cyclopenta[a]phenanthren-3-yl) 1-(1,3-bis(palmitoyloxy)propan-2-yl) 2,2-dimethyldodecanedioate] | – | – | – | below LOQ) | –
CCCCCCCCCCCCCCCC(=O)OCC(COC(=O)CCCCCCCCCCCCCCC)OC(=O)CC(C)CC(=O)OC(C)OC(=O)O[C@@H]1CC[C@@]2(C)[C@@H](CC[C@@H]3[C@@H]2CC[C@]2(C)[C@@H](C(C)=O)CC[C@@H]32)C1 (stereo partly drawn) [Compound I-2, 1-(1-(((((3R,5S,8R,9S,10S,13S,14S,17S)-17-acetyl-10,13-dimethylhexadecahydro-1H-cyclopenta[a]phenanthren-3-yl)oxy)carbonyl)oxy)ethyl) 5-(1,3-bis(palmitoyloxy)propan-2-yl) 3-methylpentanedioate] | rapidly converted to the prodrug's monoglyceride form | rapidly converted to the prodrug's monoglyceride form | rapidly converted to the prodrug's monoglyceride form | – | acid intermediate of hydrolysis [1]: not observed; acid intermediate of hydrolysis ([2]; HPLC-MS): not observed; acid intermediate of hydrolysis [3]: not observed; acid intermediate of hydrolysis [6]: not observed; hydrolysis of prodrug to its monoglyceride form ([6]; 0-180 min): rapidly converted to the prodrug's monoglyceride form
